Measurements taken from US20200017496A1 (priority 2017, published 2020).
Where “and” joins values, the source holds several entries; their conditions need not be identical. Equal values may be shown once. Read-outs that look alike come from different tables or passages of the source.

Experiments:
Format in all cases: cell-based
[1] = tested on: Escherichia coli (ECO) isolates; test: MIC of compounds alone and combined with antibacterials, broth microdilution (CLSI); conditions: for MIC: Escherichia coli
Experimental: (§1) Method 2: MIC of Compounds Alone and Combined with Antibacterials Against Bacterial Isolates.
(§2) Compounds of the present invention were assessed against genotyped bacterial strains (Table 3, 4) alone or in combination with an antibacterial (Table 2). […] Log phase bacterial suspensions were adjusted to a final density of 5·10^5 CFU/mL in cation-adjusted Mueller-Hinton broth (ca-MHB; Becton-Dickinson and Company) and added to each well (98 μL). Microplates were incubated for 16-20 h at 35° C. in ambient air. The MIC of the compounds was defined as the lowest concentration of said compounds that prevented bacterial growth as read by visual inspection. The MIC of ATB at each compound concentration was defined as the lowest concentration of ATB that prevented bacterial growth as read by visual inspection.

[2] = tested on: Enterobacter aerogenes (EAE) isolates; test: as above
Experimental: as §1, §2

[3] = tested on: Providencia stuartii (PST) isolates; test: as above; conditions: for MIC ATB in combination: AF1 @ 4 μg/mL
Experimental: as §1, §2

[4] = tested on: Morganella morganii (MMO) isolates; test: as above; conditions: for MIC: Morganella morganii
Experimental: as §1, §2

[5] = tested on: Serratia marcescens (SMA) isolates; test: as above
Experimental: as §1, §2

[6] = tested on: Proteus mirabilis (PMI) isolates; test: microbe, parasite or virus in culture; conditions: for MIC ATB in combination: AF1 @ 4 μg/mL
Experimental: as §1, §2

CC1(C)S[C@@H]2[C@H](NC(=O)[C@H](N)c3ccc(O)cc3)C(=O)N2[C@H]1C(=O)O [AMX, Amoxicillin]
2 µg/mL: MIC ATB in combination ([1]; ECO UFR86, AF1 @ 4 μg/mL) | MIC ([6]; Proteus mirabilis, strain PMI UFR129 (TEM-1, VEB-6), CLA @ 4 μg/ml+ ATB, read-out: MIC)
128 µg/mL and >256 µg/mL: MIC [5]
>256 µg/mL: MIC [2]
256 µg/mL: MIC ATB in combination ([1]; ECO 5302, AF1 @ 4 μg/mL) | MIC ATB in combination ([1]; ECO RGN238, AF1 @ 4 μg/mL) | MIC ATB in combination ([1]; ECO UFR185, AF1 @ 4 μg/mL) | MIC ATB in combination ([1]; ECO UFR208, AF1 @ 4 μg/mL) | MIC ATB in combination ([4]; MMO 200321, AF1 @ 4 μg/mL) | MIC ATB in combination ([5]; SMA UFR30, AF1 @ 4 μg/mL) | MIC ATB in combination ([5]; SMA UFR135, AF1 @ 4 μg/mL) | MIC ATB in combination ([5]; SMA UFR136, AF1 @ 4 μg/mL) | MIC ATB in combination ([5]; SMA UFR143, AF1 @ 4 μg/mL) | MIC ([6]; Proteus mirabilis, strain PMI UFR82 (CMY-2), ATB alone, read-out: MIC)
16 µg/mL: MIC ATB in combination ([1]; ECO 131119, AF1 @ 4 μg/mL) | MIC ATB in combination ([1]; ECO UFR15, AF1 @ 4 μg/mL) | MIC ATB in combination ([1]; ECO UFR62, AF1 @ 4 μg/mL) | MIC ATB in combination ([1]; ECO UFR186, AF1 @ 4 μg/mL) | MIC ATB in combination ([1]; ECO UFR187, AF1 @ 4 μg/mL) | MIC ([1]; strain ECO 180070 (TEM-1, CTX-M-15), CLA @ 4 μg/ml+ ATB) | MIC ([1]; strain ECO 200344 (CTX-M-1), CLA @ 4 μg/ml+ ATB) | MIC ([2]; Klebsiella aerogenes, strain EAE UFR201 (TEM-1, SHV-12, CTX-M-15), CLA @ 4 μg/ml+ ATB, read-out: MIC) | MIC ATB in combination ([3]; PST UFR94) | MIC ATB in combination ([6]; PMI UFR237) | MIC ([6]; Proteus mirabilis, strain PMI UFR123 (CTX-M-1), CLA @ 4 μg/ml+ ATB, read-out: MIC) | MIC ([6]; Proteus mirabilis, strain PMI UFR126 (TEM-2, PER-1), CLA @ 4 μg/ml+ ATB, read-out: MIC)
> 512 µg/mL: MIC ([1]; strain ECO 131119 (TEM-1, OXA-48), CLA @ 4 μg/ml+ ATB)
<=0.25 μg/mL: MIC ATB in combination ([6]; PMI UFR120) | MIC ATB in combination ([6]; PMI UFR121) | MIC ATB in combination ([6]; PMI UFR122) | MIC ATB in combination ([6]; PMI UFR123) | MIC ATB in combination ([6]; PMI UFR124) | MIC ATB in combination ([6]; PMI UFR125)
> 128 µg/mL: MIC ([2]; Klebsiella aerogenes) | MIC ([3]; Providencia stuartii) | MIC [4] | MIC ([4]; strain MMO 200321 (TEM-1, CTX-M-15, OXA-1), CLA @ 4 μg/ml+ ATB) | MIC ([4]; strain MMO UFR144 (TEM-1, CTX-M-15), ATB alone) | MIC ([4]; strain MMO UFR144 (TEM-1, CTX-M-15), CLA @ 4 μg/ml+ ATB) | MIC ([4]; strain MMO UFR240 (CTX-M-9), ATB alone) | MIC ([4]; strain MMO UFR240 (CTX-M-9), CLA @ 4 μg/ml+ ATB) | MIC ([4]; strain MMO UFR241 (TEM-1, CTX-M-15), ATB alone) | MIC ([4]; strain MMO UFR241 (TEM-1, CTX-M-15), CLA @ 4 μg/ml+ ATB) | MIC ([4]; strain MMO UFR242 (TEM-52), ATB alone) | MIC ([4]; strain MMO UFR242 (TEM-52), CLA @ 4 μg/ml+ ATB) | MIC ([5]; Serratia marcescens) | MIC ([6]; Proteus mirabilis)
128 µg/mL: MIC ATB in combination [1] | MIC ATB in combination [2] | MIC [3] | MIC ATB in combination [4] | MIC ATB in combination [5] | MIC [6]
4 µg/mL: MIC ATB in combination ([1]; ECO UFR189, AF1 @ 4 μg/mL) | MIC ATB in combination ([1]; ECO UFR209, AF1 @ 4 μg/mL) | MIC ([1]; strain ECO 260096 (CTX-M-132), CLA @ 4 μg/ml+ ATB) | MIC ([1]; strain ECO 260304 (CTX-M-15), CLA @ 4 μg/ml+ ATB) | MIC ATB in combination ([6]; PMI UFR126) | MIC ATB in combination ([6]; PMI UFR127) | MIC ([6]; Proteus mirabilis, strain PMI UFR121 (TEM-1, TEM-52), CLA @ 4 μg/ml+ ATB, read-out: MIC) | MIC ([6]; Proteus mirabilis, strain PMI UFR125 (CTX-M-71), CLA @ 4 μg/ml+ ATB, read-out: MIC) | MIC ([6]; Proteus mirabilis, strain PMI UFR237 (VEB-6), CLA @ 4 μg/ml+ ATB, read-out: MIC)
8 µg/mL: MIC ATB in combination ([1]; ECO UFR190, AF1 @ 4 μg/mL) | MIC ATB in combination ([1]; ECO UFR191, AF1 @ 4 μg/mL) | MIC ATB in combination ([1]; ECO UFR218, AF1 @ 4 μg/mL) | MIC ([1]; strain ECO 190314 (CTX-M-1), CLA @ 4 μg/ml+ ATB) | MIC ([1]; strain ECO 190549 (CTX-M-1), CLA @ 4 μg/ml+ ATB) | MIC ([1]; strain ECO 200159 (TEM-1, CTX-M-14), CLA @ 4 μg/ml+ ATB) | MIC ([1]; strain ECO 200259 (CTX-M-14), CLA @ 4 μg/ml+ ATB) | MIC ([1]; strain ECO UFR210 (SHV-12), CLA @ 4 μg/ml+ ATB) | MIC ([1]; strain ECO UFR211 (TEM-24), CLA @ 4 μg/ml+ ATB) | MIC ATB in combination ([6]; PMI UFR82) | MIC ATB in combination ([6]; PMI UFR129) | MIC ATB in combination ([6]; PMI UFR130) | MIC ([6]; Proteus mirabilis, strain PMI UFR120 (TEM-1, SHV-11, CTX-M-14), CLA @ 4 μg/ml+ ATB, read-out: MIC) | MIC ([6]; Proteus mirabilis, strain PMI UFR122 (TEM-1, CTX-M-15), CLA @ 4 μg/ml+ ATB, read-out: MIC)
<=1 μg/mL: MIC ATB in combination ([1]; ECO 180070, AF1 @ 4 μg/mL) | MIC ATB in combination ([1]; ECO 190314, AF1 @ 4 μg/mL) | MIC ATB in combination ([1]; ECO 190549, AF1 @ 4 μg/mL) | MIC ATB in combination ([1]; ECO 200159, AF1 @ 4 μg/mL) | MIC ATB in combination ([1]; ECO 200259, AF1 @ 4 μg/mL) | MIC ATB in combination ([1]; ECO 200344, AF1 @ 4 μg/mL) | MIC ATB in combination ([1]; ECO 260096, AF1 @ 4 μg/mL) | MIC ATB in combination ([1]; ECO 260304, AF1 @ 4 μg/mL) | MIC ATB in combination ([1]; ECO UFR210, AF1 @ 4 μg/mL) | MIC ATB in combination ([1]; ECO UFR211, AF1 @ 4 μg/mL) | MIC ATB in combination ([2]; EAE UFR201, AF1 @ 4 μg/mL)
64 µg/mL: MIC ATB in combination ([1]; ECO 190317, AF1 @ 4 μg/mL) | MIC ATB in combination ([1]; ECO 190457, AF1 @ 4 μg/mL) | MIC ATB in combination ([1]; ECO 260508, AF1 @ 4 μg/mL) | MIC ATB in combination ([1]; ECO UFR18, AF1 @ 4 μg/mL) | MIC ATB in combination ([1]; ECO UFR19, AF1 @ 4 μg/mL) | MIC ATB in combination ([1]; ECO UFR61O, AF1 @ 4 μg/mL) | MIC ATB in combination ([1]; ECO UFR212, AF1 @ 4 μg/mL) | MIC ([1]; strain ECO 190317 (TEM-1, SHV-12, CTX-M-15, OXA-1), CLA @ 4 μg/ml+ ATB) | MIC ([1]; strain ECO 260508 (TEM-1, CTX-M-15, OXA-1), CLA @ 4 μg/ml+ ATB) | MIC ATB in combination ([2]; EAE UFR199, AF1 @ 4 μg/mL) | MIC ATB in combination ([2]; EAE UFR202, AF1 @ 4 μg/mL) | MIC ATB in combination ([4]; MMO UFR243, AF1 @ 4 μg/mL) | MIC ATB in combination ([4]; MMO UFR244, AF1 @ 4 μg/mL) | MIC ATB in combination ([4]; MMO UFR245, AF1 @ 4 μg/mL) | MIC ATB in combination ([4]; MMO UFR246, AF1 @ 4 μg/mL) | MIC ATB in combination ([5]; SMA UFR137, AF1 @ 4 μg/mL) | MIC ATB in combination ([5]; SMA UFR138, AF1 @ 4 μg/mL) | MIC ATB in combination ([5]; SMA UFR139, AF1 @ 4 μg/mL) | MIC ATB in combination ([5]; SMA UFR239, AF1 @ 4 μg/mL) | MIC ([5]; Serratia marcescens, strain SMA UFR239 (ESAC), CLA @ 4 μg/ml+ ATB, read-out: MIC)
> 256 µg/mL: MIC ([4]; strain MMO 200321 (TEM-1, CTX-M-15, OXA-1), ATB alone)
> 1020 µg/mL: MIC ([1]; strain ECO 131119 (TEM-1, OXA-48), ATB alone) | MIC ([1]; strain ECO 190317 (TEM-1, SHV-12, CTX-M-15, OXA-1), ATB alone) | MIC ([1]; strain ECO RGN238 (OXA-1), ATB alone) | MIC ([2]; Klebsiella aerogenes, strain EAE 49469 (AmpC), ATB alone, read-out: MIC)
32 µg/mL: MIC ATB in combination ([1]; ECO UFR174, AF1 @ 4 μg/mL) | MIC ATB in combination ([1]; ECO UFR175, AF1 @ 4 μg/mL) | MIC ATB in combination ([1]; ECO UFR176, AF1 @ 4 μg/mL) | MIC ATB in combination ([1]; ECO UFR184, AF1 @ 4 μg/mL) | MIC ATB in combination ([1]; ECO UFR207, AF1 @ 4 μg/mL) | MIC ([1]; strain ECO UFR207 (CTX-M-15), CLA @ 4 μg/ml+ ATB) | MIC ([1]; strain ECO UFR209 (TEM-1, CTX-M-15), CLA @ 4 μg/ml+ ATB) | MIC ([1]; strain ECO UFR218 (TEM-1, SHV-1, CTX-M-15), CLA @ 4 μg/ml+ ATB) | MIC ATB in combination ([2]; EAE UFR213, AF1 @ 4 μg/mL) | MIC ATB in combination ([3]; PST UFR95) | MIC ATB in combination ([3]; PST UFR235) | MIC ATB in combination ([4]; MMO UFR240, AF1 @ 4 μg/mL) | MIC ATB in combination ([4]; MMO UFR247, AF1 @ 4 μg/mL) | MIC ([6]; Proteus mirabilis, strain PMI UFR127 (VEB-1), CLA @ 4 μg/ml+ ATB, read-out: MIC)
